This is an account of results in patent US20130065969A9, “Odour Compounds” (priority 2009, published 2013).

Data set [1] can be described thus: Vapour pressure by saturated headspace trapping and GC quantification. It counts as physicochemical. The conditions noted are these: headspace concentration at constant 25° C., mean of three independent measurements. The procedure:
For each compound the vapour pressure was determined via the following procedure: 500 mg of the test compound was added to a headspace container which was then scaled. The container was incubated at constant 25° C. until the compound reached equilibrium between the gas and the liquid phase. An exactly defined but variable volume between 0.5-1.0 L of this saturated headspace was trapped on a micro filter using Porapak Q as sorbent. After filter extraction with 30-100 μl methyl tert.-butyl ether), an aliquot of the extract was analyzed by gas chromatograph (GC). Quantification was performed by the external standard calibration method. The concentration in the original headspace was calculated (in terms of μg/l) from the headspace volume sucked through the micro filter and the aliquot of the filter extract injected into the gas chromatograph. The final headspace concentration value for a given test compound was obtained as the mean value of three independent measurements.
Further information of the technique described hereinabove may be found in the article of F. Etzweiler, E. Senn, N. Neuner-Jehle, Ber. Bunsen-Ges. Phys. Chem. 1984, 88, 578.

Data set [2] is described as follows: Odour threshold by GC detection at the sniffing port (panel of 5 persons). The settings on record: mean of individual thresholds of 5 panelists. How it is done:
For each compound the odour threshold value was determined by gas chromatograph (GC) detection. […] Each panelist (panel of 5 persons) smelled blind and pressed a button upon perceiving an odor. If the recorded time matched the retention time, the sample was further diluted. The last quantity detected at the correct retention time was the panelist's individual odor threshold. The final threshold value for a given test compound was obtained as the mean value of the individual threshold levels.
Further information of the technique described hereinabove may be found in N. Neuner-Jehle, F. Etzweiler. ‘Measuring of Odors’, in P. Müller. D. Lamparsky (Eds,). ‘Perfumes. Art, Science and Technology’, Elsevier Appl. Science Publ., London. 1991: pp. 153.

`C/C(=C\C(C)C)C(C)OC(C)(C)COC(=O)C1CC1` (centres unmarked) [(3″E)-2-(3,5-Dimethylhex-3-en-2-yloxy)-2-methylpropyl cyclopropanecarboxylate, reference compound]: in data set [1], the “Vapour Pressure” value turned out to be 27.57 µg/L. Also, the “Odour Threshold” value in data set [2] amounted to 5.9 ng/L. For `CC/C(=C\C(C)C)C(C)OC(C)(C)COC(=O)C1CC1` (centres unmarked) [Example 2, (3″E)-2′-(3″-Ethyl-5″-methylhex-3″-en-2″yloxy)-2′-methylpropyl cyclopropanecarboxylate], in that order: 10.61 µg/L and 2.2 ng/L. On to `CC/C(=C\C(C)C)C(C)OC(C)(C)COC(=O)C1CCC1` (centres unmarked) [Example 4, (3″E)-2′-(3″-Ethyl-5″-methylhex-3″-en-2″-yloxy)-2′-methylpropyl cyclobutanecarboxylate], for which the “Vapour Pressure” value in data set [1] was found to be 4.76 µg/L.
